In patent US20110182982A1, “LIPOSOME TREATMENT OF VIRAL INFECTIONS” (University of Oxford, priority 2006, published 2011):
Where two headings read alike, the source gives them in different places.

Experiments:
cp BVDV = assay: Yield reduction (plaque) assay; assay type: cell-based, bovine viral diarrhea virus; conditions: for IC50: Bovine viral diarrhea virus isolates and strains, read-out: IC50, secretion of infectious BVDV
Description: The antiviral effect of liposome-included NB-DNJ was also tested against the cp BVDV, using the yield reduction assay, a method which takes advantage of the cp strain being able to form plaques on monolayers of infected cells.
FIG. 7 represents the effect of free vs. DC liposome-encapsulated NB-DNJ, on secretion of infectious cp BVDV. MDBK cells infected with cp BVDV were treated for 3 days with either free or DC liposome-NB-DNJ, so that the final NB-DNJ concentrations ranged between 0 and 500 μM and the total lipid concentration was 100 μM. The supernatants were then removed and used to infect fresh MDBK monolayers in six-well plates. After 3 days the plaques were counted under the microscope (plaque assay) and the results were expressed as a percentage of the number of plaques resulting from infection with no drug supernatant (=100%) (x axis). The y axis indicates the free or DC liposome-included NB-DNJ concentrations used in the plaque assay. The IC50 is indicated at the bottom of the graph.

HIV-1 primary isolates = assay: p24 secretion of HIV-1-infected PBMCs, eight primary isolates; assay type: cell-based
Description: (§1) Clearance of HIV-1 primary isolates from infected human cells by NB-DNJ was assessed using phytohemagglutinin (PHA)-activated peripheral blood mononuclear cells (PBMCs) as indicator cells and the determination of p24 antigen production as the end point.
(§2) PBMCs from four normal (uninfected) donors were isolated, pooled, and stimulated with PHA (5 μg/ml) for 48 h followed by PHA plus interleukin-2 (40 U/ml) for 72 h in RPMI 1640 medium containing 10% heat-inactivated fetal bovine serum (FBS), 100 U of penicillin per ml, 100 μg of streptomycin per ml, and 2 mM L-glutamine. All experiments were performed in 96-well microtiter plates. To infect cells, 100 μl of PHA-activated PBMCs (5×10^5/ml) was added to each well, after which an equal volume containing 100 50% tissue culture infective doses (TCID50) of primary isolate stock was added. After an overnight incubation, the cells were washed three times with tissue culture medium, and finally re-suspended in medium containing the appropriate liposome treatment or free NB-DNJ. On day 7, approximately 10-30% of the culture volume containing secreted HIV-1 virions was used to infect naïve PBMCs for a second round of infection and treatment (volume transferred was calculated to be the volume necessary for the untreated control of that isolate to infect naïve cells at a TCID50=100). Rounds of treatment and infection of naïve cells were continued over four weeks, and at every time point cellular supernatant containing secreted virions was isolated and used in capture ELISAs to determine p24 concentration (measure of secretion). Additionally, supernatant isolated at each time point throughout treatment was used to infect naïve PBMCs (TCID50=100) for two weeks with no further treatment, which allowed for the observation of a rebound in viral activity.
(§3) PBMCs infected with 8 primary isolates (listed in Table 3) were incubated in the presence of free NB-DNJ (concentrations ranging 0-1 mM) or liposome-encapsulated NB-DNJ (0-3.75 μM, final lipid concentration of 50 μM).

HIV-1 isolate: HT92599 = assay: p24 secretion of HIV-1-infected PBMCs; assay type: cell-based; conditions: for % p24 secretion Week 1-rb / % p24 secretion Week 2-rb / % p24 secretion Week 3-rb / % p24 secretion Week 4-rb: treatment removed 2 weeks
Description: as §1, §2, §3

HIV-1 isolate: JR-FL = assay: p24 secretion of HIV-1-infected PBMCs; assay type: cell-based; conditions: for % p24 secretion Week 1-rb / % p24 secretion Week 2-rb / % p24 secretion Week 3-rb / % p24 secretion Week 4-rb: treatment removed 2 weeks
Description: as §1, §2, §3

HIV-1 isolate: UG92046 = assay: p24 secretion of HIV-1-infected PBMCs; assay type: cell-based; conditions: for % p24 secretion Week 1-rb / % p24 secretion Week 2-rb / % p24 secretion Week 3-rb / % p24 secretion Week 4-rb: treatment removed 2 weeks
Description: as §1, §2, §3

[1] = Human immunodeficiency virus 1, PBMC, free, three rounds of treatment, six isolates
[2] = 1 mM free in medium, first week

Compound: CCCCN1C[C@H](O)[C@@H](O)[C@H](O)[C@H]1CO [NB-DNJ, N-butyl-1,5-dideoxy-1,5-imino-D-glucitol]
- better inhibition, DC liposomes vs free (cp BVDV): 8 fold
- IC50 (cp BVDV; free drug): 175 µM
- IC50 (cp BVDV; included in DC liposomes, total lipid 100 μM): 20 µM
- reduction in viral secretion (HIV-1 primary isolates; 1 mM free in medium, first week, most isolates): 30-40%
- enhancement of antiviral activity, liposome vs free (HIV-1 primary isolates; DOPE:CHEMS:PEG-PE liposomes): 10^4-10^5 fold
- IC50 (HIV-1 primary isolates; [1]): 400 µM
- IC90 (HIV-1 primary isolates; [1]): 500 µM
- final NB-DNJ concentration with antiviral activity similar to 500 μM free (HIV-1 primary isolates; encapsulated in DOPE:CHEMS:PEG-PE liposomes, all isolates): 3.75 to 37.5 nM
- reduction in viral activity (HIV-1 primary isolates; free, all isolates): ≥ 90%
- antiviral concentration (lowest to clear viral activity in all isolates) (HIV-1 primary isolates; free, four weeks treatment): 500 µM
- reduction in viral secretion (HIV-1 isolate: HT92599; [2]): 50%
- % p24 secretion Week 1 (HIV-1 isolate: HT92599; NB-DNJ 250 uM): 99%
- % p24 secretion Week 2 (HIV-1 isolate: HT92599; NB-DNJ 250 uM): 84%
- % p24 secretion Week 3 (HIV-1 isolate: HT92599; NB-DNJ 250 uM): 88%
- % p24 secretion Week 4 (HIV-1 isolate: HT92599; NB-DNJ 250 uM): 81%
- % p24 secretion Week 1-rb (HIV-1 isolate: HT92599; NB-DNJ 250 uM): 93%
- % p24 secretion Week 2-rb (HIV-1 isolate: HT92599; NB-DNJ 250 uM): 99%
- % p24 secretion Week 3-rb (HIV-1 isolate: HT92599; NB-DNJ 250 uM): 95%
- % p24 secretion Week 4-rb (HIV-1 isolate: HT92599; NB-DNJ 250 uM): 88%
- % p24 secretion Week 1 (HIV-1 isolate: HT92599; NB-DNJ 500 uM): 53%
- % p24 secretion Week 2 (HIV-1 isolate: HT92599; NB-DNJ 500 uM): 19%
- % p24 secretion Week 3 (HIV-1 isolate: HT92599; NB-DNJ 500 uM): 8%
- % p24 secretion Week 4 (HIV-1 isolate: HT92599; NB-DNJ 500 uM): 1%
- % p24 secretion Week 1-rb (HIV-1 isolate: HT92599; NB-DNJ 500 uM): 67%
- % p24 secretion Week 2-rb (HIV-1 isolate: HT92599; NB-DNJ 500 uM): 27%
- % p24 secretion Week 3-rb (HIV-1 isolate: HT92599; NB-DNJ 500 uM): 17%
- % p24 secretion Week 4-rb (HIV-1 isolate: HT92599; NB-DNJ 500 uM): 1%
- % p24 secretion Week 1 (HIV-1 isolate: HT92599; NB-DNJ 1000 uM): 55%
- % p24 secretion Week 2 (HIV-1 isolate: HT92599; NB-DNJ 1000 uM): 10%
- % p24 secretion Week 3 (HIV-1 isolate: HT92599; NB-DNJ 1000 uM): 3%
- % p24 secretion Week 4 (HIV-1 isolate: HT92599; NB-DNJ 1000 uM): 0%
- % p24 secretion Week 1-rb (HIV-1 isolate: HT92599; NB-DNJ 1000 uM): 52%
- % p24 secretion Week 2-rb (HIV-1 isolate: HT92599; NB-DNJ 1000 uM): 15%
- % p24 secretion Week 3-rb (HIV-1 isolate: HT92599; NB-DNJ 1000 uM): 6%
- % p24 secretion Week 4-rb (HIV-1 isolate: HT92599; NB-DNJ 1000 uM): 1%
- reduction in viral secretion (HIV-1 isolate: JR-FL; [2]): 50%
- % p24 secretion Week 1 (HIV-1 isolate: JR-FL; NB-DNJ 250 uM): 107%
- % p24 secretion Week 2 (HIV-1 isolate: JR-FL; NB-DNJ 250 uM): 105%
- % p24 secretion Week 3 (HIV-1 isolate: JR-FL; NB-DNJ 250 uM): 89%
- % p24 secretion Week 4 (HIV-1 isolate: JR-FL; NB-DNJ 250 uM): 93%
- % p24 secretion Week 1-rb (HIV-1 isolate: JR-FL; NB-DNJ 250 uM): 104%
- % p24 secretion Week 2-rb (HIV-1 isolate: JR-FL; NB-DNJ 250 uM): 101%
- % p24 secretion Week 3-rb (HIV-1 isolate: JR-FL; NB-DNJ 250 uM): 97%
- % p24 secretion Week 4-rb (HIV-1 isolate: JR-FL; NB-DNJ 250 uM): 91%
- % p24 secretion Week 1 (HIV-1 isolate: JR-FL; NB-DNJ 500 uM): 64%
- % p24 secretion Week 2 (HIV-1 isolate: JR-FL; NB-DNJ 500 uM): 24%
- % p24 secretion Week 3 (HIV-1 isolate: JR-FL; NB-DNJ 500 uM): 5%
- % p24 secretion Week 4 (HIV-1 isolate: JR-FL; NB-DNJ 500 uM): 0%
- % p24 secretion Week 1-rb (HIV-1 isolate: JR-FL; NB-DNJ 500 uM): 75%
- % p24 secretion Week 2-rb (HIV-1 isolate: JR-FL; NB-DNJ 500 uM): 9%
- % p24 secretion Week 3-rb (HIV-1 isolate: JR-FL; NB-DNJ 500 uM): 4%
- % p24 secretion Week 4-rb (HIV-1 isolate: JR-FL; NB-DNJ 500 uM): 2%
- % p24 secretion Week 1 (HIV-1 isolate: JR-FL; NB-DNJ 1000 uM): 44%
- % p24 secretion Week 2 (HIV-1 isolate: JR-FL; NB-DNJ 1000 uM): 9%
- % p24 secretion Week 3 (HIV-1 isolate: JR-FL; NB-DNJ 1000 uM): 1%
- % p24 secretion Week 4 (HIV-1 isolate: JR-FL; NB-DNJ 1000 uM): 0%
- % p24 secretion Week 1-rb (HIV-1 isolate: JR-FL; NB-DNJ 1000 uM): 56%
- % p24 secretion Week 2-rb (HIV-1 isolate: JR-FL; NB-DNJ 1000 uM): 5%
- % p24 secretion Week 3-rb (HIV-1 isolate: JR-FL; NB-DNJ 1000 uM): 1%
- % p24 secretion Week 4-rb (HIV-1 isolate: JR-FL; NB-DNJ 1000 uM): 0%
- % p24 secretion Week 1 (HIV-1 isolate: UG92046; NB-DNJ 250 uM): 91%
- % p24 secretion Week 2 (HIV-1 isolate: UG92046; NB-DNJ 250 uM): 115%
- % p24 secretion Week 3 (HIV-1 isolate: UG92046; NB-DNJ 250 uM): 91%
- % p24 secretion Week 4 (HIV-1 isolate: UG92046; NB-DNJ 250 uM): 79%
- % p24 secretion Week 1-rb (HIV-1 isolate: UG92046; NB-DNJ 250 uM): 99%
- % p24 secretion Week 2-rb (HIV-1 isolate: UG92046; NB-DNJ 250 uM): 92%
- % p24 secretion Week 3-rb (HIV-1 isolate: UG92046; NB-DNJ 250 uM): 94%
- % p24 secretion Week 4-rb (HIV-1 isolate: UG92046; NB-DNJ 250 uM): 89%
- % p24 secretion Week 1 (HIV-1 isolate: UG92046; NB-DNJ 500 uM): 79%
- % p24 secretion Week 2 (HIV-1 isolate: UG92046; NB-DNJ 500 uM): 39%
- % p24 secretion Week 3 (HIV-1 isolate: UG92046; NB-DNJ 500 uM): 10%
- % p24 secretion Week 4 (HIV-1 isolate: UG92046; NB-DNJ 500 uM): 0%
- % p24 secretion Week 1-rb (HIV-1 isolate: UG92046; NB-DNJ 500 uM): 75%
- % p24 secretion Week 2-rb (HIV-1 isolate: UG92046; NB-DNJ 500 uM): 43%
- % p24 secretion Week 3-rb (HIV-1 isolate: UG92046; NB-DNJ 500 uM): 15%
- % p24 secretion Week 4-rb (HIV-1 isolate: UG92046; NB-DNJ 500 uM): 0%
- % p24 secretion Week 1 (HIV-1 isolate: UG92046; NB-DNJ 1000 uM): 64%
- % p24 secretion Week 2 (HIV-1 isolate: UG92046; NB-DNJ 1000 uM): 15%
- % p24 secretion Week 3 (HIV-1 isolate: UG92046; NB-DNJ 1000 uM): 3%
- % p24 secretion Week 4 (HIV-1 isolate: UG92046; NB-DNJ 1000 uM): 0%
- % p24 secretion Week 1-rb (HIV-1 isolate: UG92046; NB-DNJ 1000 uM): 64%
- % p24 secretion Week 2-rb (HIV-1 isolate: UG92046; NB-DNJ 1000 uM): 21%
- % p24 secretion Week 3-rb (HIV-1 isolate: UG92046; NB-DNJ 1000 uM): 1%
- % p24 secretion Week 4-rb (HIV-1 isolate: UG92046; NB-DNJ 1000 uM): 0%
